Source: patent US20200009134A1, “Method and Compound for Modifying Circadian Clock” (Gritscience Biopharmaceuticals Co., Ltd., priority 2017, published 2020)

Columns and labels:
[1] = test system: U2OS cells expressing Per2-luciferase; test: Circadian rhythm of U2OS cells expressing Per2-luciferase; type: cell-based, human; conditions: for Phenotype: phase of the circadian rhythm / Phenotype: Period shortening: Cay10576 15 μM, dinaciclib 10 nM, Cdk/Crk inhibitor 10 nM, n=4 (FIG. 1b, 1c); for Phenotype: Period lengthening: IKBKB inhibitors, all at 10 μM, n=5 (FIG. 1a)
Description: (a) IKBKB inhibitors. The concentration of all the inhibitors was 10 μM, n=5. (b) IKBKE inhibitors.
The above experiments were conducted with the drug added to the culture media from the beginning.

[2] = test system: U2OS cells expressing Per2-luciferase; test: as above; type: cell-based, human
[3] = test system: SCN explants; test: Circadian rhythm of SCN explants from Per2::Luciferase mice; type: cell-based, mouse; conditions: applied at CT12; p<0.01, n=8
From the text: U2OS cells are just cultured cells, while the SCN is the master clock in mammals. We dissected the SCN from mice expressing the Per2::Luciferase gene which faithfully reported the circadian rhythm (Yoo et al., 2004).

[4] = applied from the beginning of the assay

Structure (SMILES)	Phenotype: phase of the circadian rhythm [1]	Phenotype: Period shortening [1, 4]	Phenotype: Period lengthening [1]	also measured
COc1cc2ncn(-c3cc(OCc4ccccc4S(C)(=O)=O)c(C#N)s3)c2cc1OC [Cay10576]	delay	Period shortening, 0.3 ± 0.060 h; phase	–	Phenotype: Period shortening ([1]; applied from the beginning of the assay, listed as Cayl0576): 0.3 h
CC(C)c1[nH]n(-c2c(Cl)cccc2Cl)c2nc(Cc3ccc(OCCO)cc3)nc(=O)c1-2 [Cdk/crk inhibitor, 1-(2,6-dichlorophenyl)-6-[[4-(2-hydroxyethoxy)phenyl]methyl]-3-propan-2-yl-2H-pyrazolo[3,4-d]pyrimidin-4-one]	delay	Period shortening, 0.5 ± 0.074 h; phase	–	–
CCc1cnn2c(NCc3ccc[n+]([O-])c3)cc(N3CCCC[C@H]3CCO)nc12 [Dinaciclib]	–	Period shortening, 0.6 ± 0.050 h; phase	–	Phenotype: Period shortening ([1]; applied from the beginning of the assay, listed as dinaciclib): 0.6 h; Increase of amplitude [1, 4]: 1.78 fold; Phase delay ([2]; applied at CT6, p<0.001, n=5): 7.543 ± 0.6185 h; Phase delay ([2]; applied at CT12, p<0.0001, n=5): 5.808 ± 0.5455 h; Phase delay ([2]; applied at CTO, p<0.01, n=5): 4.092 ± 0.9062 h; Phase advance ([2]; introduced at CT18): 1.7 ± 0.81 h; Phase advance of SCN explants [3]: 2.488 ± 0.7391 h
NC(=O)Nc1sc(-c2ccc(F)cc2)cc1C(N)=O [Ikk2 inhibitor iv, 2-(carbamoylamino)-5-(4-fluorophenyl)thiophene-3-carboxamide]	–	–	Period lengthening, 3.16 ± 0.167 h	–
O=C(Nc1cc(C(F)(F)F)cc(C(F)(F)F)c1)c1cc(Cl)ccc1O [Ikk2 inhibitor v, N-[3,5-bis(trifluoromethyl)phenyl]-5-chloro-2-hydroxybenzamide]	–	–	Period lengthening, 1.84 ± 0.192 h	–
NC(=O)Nc1sc(-c2ccccc2)cc1C(N)=O [Ikk2 inhibitor vi, 2-[(aminocarbonyl)amino]-5-phenyl-3-thiophenecarboxamide]	–	–	Period lengthening, 1.25 ± 0.149 h	–
